This passage reports IC50 results from patent US20150329498A1, “IRAK INHIBITORS AND USES THEREOF” (Nimbus Iris, Inc., priority 2014, published 2015).

For assay [1], the system named is IL8 production in THP-1 cells. The experiment in a line: LPS induced IL8 production assay in THP-1 cells. It counts as cell-based. The following applies: Homo sapiens, 300 ng/mL LPS, measured at 16 hours. How it is done: (§1) Provided compounds were also assayed in an LPS (Lipopolysaccharide) or R848 (TLR-7 agonist) induced cytokine (TNFα and IL8) production assay in THP-1 cells, human white blood cells (hWBC), and human whole blood. The exemplary protocol for this assay in THP-1 cells was as follows below.
(§2) THP-1 cells from ATCC (TIB-202) were cultured in RPMI Medium 1640 (Invitrogen, Cat No. A10491-01), 10% fetal bovine serum (Invitrogen, Cat No. 10099141, Lot No. 8172882) containing 100 U/mL Penicillin, 100 μg/mL streptomycin (Invitrogen, Cat No. 15140-122), and 50 uM 2-Mercaptoethanol (Invitrogen, Cat No. 21985023). LPS-EK ultra pure (Invivogen, Cat No. tlrl-peklps) was used to induce IL8 and TNFα production, that was detected in the cell culture supernatant by IL8 HTRF kit (Cisbio, Cat No. 62IL8PEB) and TNFα HTRF kit (Cisbio, Cat No. 62TNFPEB), as per manufacturer instructions. Cells were cultured in 96 well assay plates at 100,000 cells per well, and compounds diluted in final 0.3% DMSO were pre-incubated with cells for 1 hour prior to stimulation with 300 ng/mL LPS. Cytokine production in cell supernatant was measured at 5 hours for TNFα production, and at 16 hours for IL8 production and assessment of cell viability.
(§3) The compound numbers correspond to the compound numbers in Table 1. Compounds having an activity designated as “A” provided an IC50≦0.5 μM; compounds having an activity designated as “B” provided an IC50 of 0.5-5.0 μM; compounds having an activity designated as “C” provided an IC50>5.0 μM. “NA” stands for “not assayed.”

Assay [2] concerns TNFα production in THP-1 cells. The experiment in a line: LPS induced TNFα production assay in THP-1 cells. Format: cell-based. The following applies: Homo sapiens, 300 ng/mL LPS, measured at 5 hours. How it is done:
as §1, §2, §3

A further assay has as its target T1, IRAK4 (Homo sapiens, UniProt Q9NWZ3).
T1 construct: purchased CARNA Bioscience 09-145
T1 sequence (Q9NWZ3 1-460): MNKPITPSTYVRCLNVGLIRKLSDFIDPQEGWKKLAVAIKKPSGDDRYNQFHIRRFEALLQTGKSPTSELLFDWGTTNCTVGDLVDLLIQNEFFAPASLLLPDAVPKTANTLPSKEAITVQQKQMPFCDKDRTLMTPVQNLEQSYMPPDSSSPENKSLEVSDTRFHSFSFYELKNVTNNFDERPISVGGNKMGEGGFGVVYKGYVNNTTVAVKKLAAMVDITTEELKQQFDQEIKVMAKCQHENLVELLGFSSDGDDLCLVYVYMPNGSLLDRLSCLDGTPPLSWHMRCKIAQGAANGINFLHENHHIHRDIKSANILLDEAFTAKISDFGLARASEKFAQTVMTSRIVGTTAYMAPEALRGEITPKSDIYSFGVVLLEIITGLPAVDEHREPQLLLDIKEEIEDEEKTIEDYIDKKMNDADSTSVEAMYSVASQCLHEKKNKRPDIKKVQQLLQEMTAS
The experiment in a line: IRAK-4 activity inhibition assay (Caliper). The following applies: 3.5 nM IRAK4, 1.5 μM Peptide 8, 37 μM ATP. It counts as biochemical. How it is done:
A 1x kinase base buffer was prepared from 50 mM HEPES, pH 7.5 and 0.0015% Brij-35. A stop buffer was prepared from 100 mM HEPES, pH 7.5, 0.015% Brij-35, 0.2% Coating Reagent #3, and 50 mM EDTA.
Test compound was diluted to 50× of the final desired highest inhibitor concentration in reaction by 100% DMSO. 100 ul of this compound dilution was transferred to a well in a 96-well plate. For example, if desired highest inhibitor concentration in IC50 determination is 100 uM, then prepare 5000 uM of compound DMSO solution in this step.
Test compound was serially diluted by transferring 30 μl to 60 μl of 100% DMSO in the next well and so forth for a total of 10 concentrations. 100 μl of 100% DMSO was added to two empty wells for no compound control and no enzyme control in the same 96-well plate.
A new 96-well plate was marked as intermediate plate. 5 μl of compound serial dilution was transferred from source plate to the corresponding wells of the intermediate plate. 45 μl of 1x kinase base buffer (KB buffer) was added to each well of the intermediate plate. The intermediate plate was placed for 10 min on a shaker.
5 μl of each well was transferred from the 96-well intermediate plate to a 384-well plate in duplicates. For example, A1 of the 96-well plate is transferred to A1 and A2 of the 384-well plate. A2 of the 96-well plate is transferred to A3 and A4 of the 384-well plate, and so on.
IRAK4 and DTT in 1x kinase base buffer was added. The 2.5x enzyme mix contained 8.8 nM IRAK4 and 5 mM DTT.
Peptide 8, ATP, MgCl2 and MnCl2 were added in the 1x kinase base buffer. The 2.5x peptide mix contained 3.75 μM peptide 8, 92.5 μM ATP, 12.5 mM MgCl2 and 2.5 mM MnCl2.
Assay plate already contained 5 μl of compound in 10% DMSO. Added 10 μl of 2.5x enzyme solution to each well of the 384-well assay plate, except no enzyme control wells. The final concentration of IRAK4 in reaction was 3.5 nM. Added 10 μl of 1x kinase base buffer to no enzyme control wells in the assay plate. Incubated at room temperature for 10 min.
Added 10 μl of 2.5x peptide solution to each well of the 384-well assay plate. The final concentration of Peptide 8 and ATP was 1.5 μM and 37 μM, respectively. Incubated at for 40 minutes. Added 25 μl of stop buffer to stop reaction. Collected data on Caliper.
Copied conversion % data from Caliper program. Converted conversion % values to percent inhibition values. Percent inhibition=(max−conversion %)/(max−min)*100, where “max” means the conversion % of DMSO control and “min” means the conversion % of no enzyme control.
The compound numbers correspond to the compound numbers in Table 1. Compounds having an activity designated as “A” provided an IC50≦5 μM; compounds having an activity designated as “B” provided an IC50 of 5-20 μM; compounds having an activity designated as “C” provided an IC50 of 20-50 μM; and compounds having an activity designated as “D” provided an IC50≧50 μM. “NA” stands for “not assayed.”

By IC50 is commonly meant the concentration needed to halve the response being measured. Lower therefore signals higher potency. For the molecule `c1nc(O[C@H]2CC[C@H](N3CCOCC3)CC2)c2c3c(ccc2n1)CCC3` [Compound I-31, 4-((1r,4r)-4-((8,9-dihydro-7H-cyclopenta[f]quinazolin-1-yl)oxy)cyclohexyl)morpholine], the figures for the IC50 (in assay [1]; in assay [2]; on IRAK4) were at most 500 nM, 500 to 5000 nM and at most 5000 nM, respectively.
As for `N#CCc1ccc2ncnc(N[C@H]3CC[C@H](N4CCOCC4)CC3)c2c1` [Compound I-34, 2-(4-(((1r,4r)-4-morpholinocyclohexyl)amino)-quinazolin-6-yl)acetonitrile], the IC50 in assay [1] was at most 500 nM; in assay [2] it was 500 to 5000 nM; on IRAK4, at most 5000 nM.
For `C#Cc1ccc2ncnc(N[C@H]3CC[C@H](N4CCOCC4)CC3)c2c1` [Compound I-35, 6-ethynyl-N-((1r,4r)-4-morpholinocyclohexyl)quinazolin-4-amine], in that order: at most 500 nM, 500 to 5000 nM and at most 5000 nM.
For `Clc1ccc2ncnc(N[C@H]3CC[C@H](N4CCC5(CC4)CC5)CC3)c2c1` [Compound I-36, N-((1r,4r)-4-(6-azaspiro[2.5]octan-6-yl)cyclohexyl)-6-chloro-quinazolin-4-amine], in that order: 500 to 5000 nM, at most 500 nM and at most 5000 nM.
Turning to `C=Cc1ccc2ncnc(N[C@H]3CC[C@H](N4CCC5(CC4)CC5)CC3)c2c1` [Compound I-38, N-((1r,4r)-4-(6-azaspiro[2.5]octan-6-yl)cyclohexyl)-6-vinyl-quinazolin-4-amine], the values for the IC50 (in assay [1]; in assay [2]; at IRAK4) were at most 500 nM, at most 500 nM and at most 5000 nM, respectively.
With `CCc1ccc2ncnc(N[C@H]3CC[C@H](N4CCC5(CC4)CC5)CC3)c2c1` [Compound I-39, N-((1r,4r)-4-(6-azaspiro[2.5]octan-6-yl)cyclohexyl)-6-ethyl-quinazolin-4-amine], the IC50 in assay [1] is at most 500 nM; in assay [2], at most 500 nM; against IRAK4, at most 5000 nM.
For `OCCc1ccc2ncnc(N[C@H]3CC[C@H](N4CCOCC4)CC3)c2c1` [Compound I-40, 2-(4-(((1r,4r)-4-morpholinocyclohexyl)amino)quinazolin-6-yl)ethanol], the IC50 in assay [1] was at most 500 nM; in assay [2], 500 to 5000 nM; against IRAK4, at most 5000 nM.
In the same order, the values of `OC/C=C/c1ccc2ncnc(N[C@H]3CC[C@H](N4CCOCC4)CC3)c2c1` [Compound I-41, (E)-3-(4-(((1r,4r)-4-morpholinocyclohexyl)amino)quinazolin-6-yl)prop-2-en-1-ol] are at most 500 nM, at most 500 nM and at most 5000 nM.
In the case of `OCC#Cc1ccc2ncnc(N[C@H]3CC[C@H](N4CCC5(CC4)CC5)CC3)c2c1` [Compound I-44, 3-(4-(((1r,4r)-4-(6-azaspiro[2.5]octan-6-yl)cyclohexyl)amino)-quinazolin-6-yl)prop-2-yn-1-ol], the IC50 in assay [1] was at most 500 nM; in assay [2], at most 500 nM; at IRAK4, at most 5000 nM.
On to `OCCCc1ccc2ncnc(N[C@H]3CC[C@H](N4CCOCC4)CC3)c2c1` [Compound I-46, 3-(4-(((1r,4r)-4-morpholinocyclohexyl)amino)quinazolin-6-yl)propan-1-ol], for which the IC50 in assay [1] was at most 500 nM; in assay [2] it was at most 500 nM; at IRAK4, at most 5000 nM.
Consider `N#Cc1ccc2nccc(N[C@H]3CC[C@H](N4CCOCC4)CC3)c2c1` [Compound I-47, 4-(((1r,4r)-4-morpholinocyclohexyl)amino)quinoline-6-carbo-nitrile], for which the results for the IC50 (in assay [1]; in assay [2]; against IRAK4) were at most 500 nM, 500 to 5000 nM and at most 5000 nM, respectively.
For `N#CCc1ccc2ncnc(N[C@H]3CC[C@H](N4CCC5(CC4)CC5)CC3)c2c1` [Compound I-52, 2-(4-(((1r,4r)-4-(6-azaspiro[2.5]octan-6-yl)cyclohexyl)amino)quin-azolin-6-yl)acetonitrile], in that order: at most 500 nM, at most 500 nM and at most 5000 nM.
In the same order, the values of `CN(C)[C@H]1CC[C@H](Nc2ncnc3ccc(CC#N)cc23)CC1` [Compound I-53, 2-(4-(((1r,4r)-4-(dimethylamino)cyclohexyl)amino)quinazolin-6-yl)acetonitrile] are at most 500 nM, 500 to 5000 nM and at most 5000 nM.
For `NC(=O)/C=C/c1ccc2ncnc(N[C@H]3CC[C@H](N4CCOCC4)CC3)c2c1` [Compound I-54, (E)-3-(4-(((1r,4r)-4-morpholinocyclohexyl)amino)quinazolin-6-yl)acrylamide], in that order: over 5000 nM, 500 to 5000 nM and at most 5000 nM.
For `Cc1cc(Nc2nc(N[C@H]3CC[C@H](N4CCOCC4)CC3)c3cc(Br)ccc3n2)sn1` [Compound I-56, 6-bromo-N2-(3-methylisothiazol-5-yl)-N4-((1r,4r)-4-morpholin-ocyclohexyl)quinazoline-2,4-diamine], the values for the IC50 (in assay [1]; in assay [2]; against IRAK4) were at most 500 nM, at most 500 nM and at most 5000 nM, respectively.
In the case of `N#CCc1ccc2ncnc(N[C@H]3CC[C@H](N4CCC5(CC4)COC5)CC3)c2c1` [Compound I-58, 2-(4-(((1r,4r)-4-(2-oxa-7-azaspiro[3.5]nonan-7-yl)cyclohexyl)-amino)quinazolin-6-yl)acetonitrile], the IC50 was at most 500 nM in assay [1], at most 500 nM in assay [2] and at most 5000 nM on IRAK4.
As to `c1nc(N[C@H]2CC[C@H](N3CCOCC3)CC2)c2cc(-c3cn[nH]c3)ccc2n1` [Compound I-59, N-((1r,4r)-4-morpholinocyclohexyl)-6-(1H-pyrazol-4-yl)quinazolin-4-amine], the IC50 in assay [1] is at most 500 nM; in assay [2] it was at most 500 nM; against IRAK4 it was at most 5000 nM.
